The nature of data set [1]: Contact angle measurement on a solid surface by sessile drop technique (wetting properties). Format: physicochemical. Particulars: Table 3, voriconazole series. As to the method: The contact angles of voriconazole alone, glucose, voriconazole micelle formulation and voriconazole liposome formulation on a solid surface were measured by sessile drop technique using Lorentzen and […], type 28 optical tensiometer. The purpose of measuring the contact angle is to determine the wetting properties of the formulation. Higher contact angles correspond to poor wetting whereas lower contact angle correspond to good wetting properties. Micelles and liposomes of itraconazole have been prepared according to the method described in example 1. The contact angles of itraconazole alone, glucose, itraconazole micelle formulation and itraconazole liposome formulation on a solid surface were measured by sessile drop technique using Lorentzen and […], type 28 optical tensiometer.

For data set [2] the following is noted: drug alone; no method described; cited from earlier work.

`C[C@@H](c1ncncc1F)[C@](O)(Cn1cncn1)c1ccc(F)cc1F` [Voriconazole] showed a Contact angle in data set [1] of 68.2°. The lipophilicity (Log P) in data set [2] is on record as 1.75.

For orientation: Log P means a log measure of how a compound divides between an organic and an aqueous phase.

(Values after patent publication EP4005557A1, “METHOD FOR PREPARING NANOSYSTEMS” (Université de Genève, priority 2020, dated 2022).)
